Measured values reported in patent US20190210996A1, “NOVEL COMPOUNDS” (GLAXOSMITHKLINE INTELLECTUAL PROPERTY DEVELOPMENT LIMITED, priority 2016, published 2019).

Assays:
Assay type in all cases: cell-based
BTK = biological target: T1, BTK (Homo sapiens, UniProt Q06187); assay: Expression proteomics in THP-1 cells: BTK protein level
T1 construct: endogenous in cells; host or cells: THP-1
Protocol: (§1) THP-1 cells were seeded at a concentration of 3×10^6 cells in T175 flasks with 60 mL growth medium (RPMI1640+10% FBS). […] of a 10× compound solution prepared in growth medium (DMSO), CEREBLON_PROTAC) was added and the cells were treated for the indicated time points (6 or 24 h) at 37° C., 5% CO2. For harvesting the cells were collected into falcon tubes on ice, centrifuged and washed twice in cold PBS (Life technologies). After the last washing step the supernatant was removed and the pellets were snap-frozen in liquid N2 and stored at −80° C. and lysed in 2% SDS for 3 min at 95° C. in a thermomixer (Thermo Fisher Scientific), followed by digestion of DNA with Benzonase at 37° C. for 1.5 h. Lysate was cleared by centrifugation an protein concentration in supernatant was determined by BCA assay.
(§2) Leukemia 25, 89-100 (2011).
(§3) Samples were dried in vacuo and resuspended in 0.05% trifluoroacetic acid in water. Of the sample, 50% was injected into an Ultimate3000 nanoRLSC (Dionex, Sunnyvale, Calif.) coupled to a Q Exactive HF (Thermo Fisher Scientific). Peptides were trapped on a 5 mm×300 μm C18 column (Pepmap100, 5 μm, 300 Å, Thermo Fisher Scientific) in water with 0.05% TFA at 60° C. Separation was performed on custom 50 cm×[…] (ID) reversed-phase columns (Reprosil) at 55° C. Gradient elution was performed from 2% acetonitrile to 40% acetonitrile in 0.1% formic acid and 3.5% DMSO over 2 hours. Samples were online injected into Q-Exactive HF mass spectrometers operating with a data-dependent top 10 method. MS spectra were acquired by using 60.000 resolution and an ion target of 3×10^6. Higher energy collisional dissociation (HCD) scans were performed with 35% NCE at 30.000 resolution (at m/z 200), and the ion target settings was set to 2×10^5 so as to avoid coalescence (Werner, T. et al. Ion Coalescence of Neutron Encoded TMT 10-Plex Reporter Ions. Anal. Chem. 86, 3594-3601 (2014).
(§4) The first search was performed with 30 parts per million mass tolerance for peptide precursors and 30 mD (HCD) mass tolerance for fragment ions followed by a final search using recalibrated data with a 10 parts per million mass tolerance for peptide precursors and 20 mD (HCD) mass tolerance for fragment ions. Carbamidomethylation of cysteine residues and TMT modification of lysine residues were set as fixed modifications and methionine oxidation, and N-terminal acetylation of proteins and TMT modification of peptide N-termini were set as variable modifications. […]
(§5) Nat Biotech 29, 255-265 (2011). this measure is referred to as ion area Savitski, M. M. et al. Delayed Fragmentation and Optimized Isolation Width Settings for Improvement of Protein Identification and Accuracy of Isobaric Mass Tag Quantification on Orbitrap-Type Mass Spectrometers. […]

RPS6KA1 = biological target: T2, RPS6KA1 (Homo sapiens, UniProt Q15418); assay: Expression proteomics in THP-1 cells: RPS6KA1 protein level; conditions: RPS6KA1, THP-1 cells
T2 construct: endogenous in cells; host or cells: THP-1
T2 sequence (Q15418 whole entry): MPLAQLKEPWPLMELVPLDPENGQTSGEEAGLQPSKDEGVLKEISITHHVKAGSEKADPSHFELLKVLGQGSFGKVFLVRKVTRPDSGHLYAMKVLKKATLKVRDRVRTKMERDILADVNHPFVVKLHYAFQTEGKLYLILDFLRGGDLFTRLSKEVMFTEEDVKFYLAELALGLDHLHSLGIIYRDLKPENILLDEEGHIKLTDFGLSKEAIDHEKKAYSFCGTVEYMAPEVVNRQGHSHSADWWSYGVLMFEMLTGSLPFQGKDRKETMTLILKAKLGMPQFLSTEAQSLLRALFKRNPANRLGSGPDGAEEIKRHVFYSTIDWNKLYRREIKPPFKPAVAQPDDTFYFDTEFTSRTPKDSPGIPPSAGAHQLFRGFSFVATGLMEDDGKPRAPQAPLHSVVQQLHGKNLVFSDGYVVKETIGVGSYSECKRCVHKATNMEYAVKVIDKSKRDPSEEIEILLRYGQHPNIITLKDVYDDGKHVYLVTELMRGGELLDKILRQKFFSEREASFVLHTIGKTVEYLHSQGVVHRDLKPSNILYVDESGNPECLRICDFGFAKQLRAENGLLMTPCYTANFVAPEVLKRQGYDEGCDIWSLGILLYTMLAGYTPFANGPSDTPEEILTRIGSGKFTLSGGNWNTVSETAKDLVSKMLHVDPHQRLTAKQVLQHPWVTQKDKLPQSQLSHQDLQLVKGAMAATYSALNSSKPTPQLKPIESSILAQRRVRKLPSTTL
Protocol: as §1, §2, §3, §4, §5

IRAK3 = biological target: T3, IRAK3 (Homo sapiens, UniProt Q9Y616); assay: Expression proteomics in THP-1 cells: IRAK3 protein level; conditions: IRAK3, THP-1 cells
T3 construct: endogenous in cells; host or cells: THP-1
T3 sequence (Q9Y616 1-596): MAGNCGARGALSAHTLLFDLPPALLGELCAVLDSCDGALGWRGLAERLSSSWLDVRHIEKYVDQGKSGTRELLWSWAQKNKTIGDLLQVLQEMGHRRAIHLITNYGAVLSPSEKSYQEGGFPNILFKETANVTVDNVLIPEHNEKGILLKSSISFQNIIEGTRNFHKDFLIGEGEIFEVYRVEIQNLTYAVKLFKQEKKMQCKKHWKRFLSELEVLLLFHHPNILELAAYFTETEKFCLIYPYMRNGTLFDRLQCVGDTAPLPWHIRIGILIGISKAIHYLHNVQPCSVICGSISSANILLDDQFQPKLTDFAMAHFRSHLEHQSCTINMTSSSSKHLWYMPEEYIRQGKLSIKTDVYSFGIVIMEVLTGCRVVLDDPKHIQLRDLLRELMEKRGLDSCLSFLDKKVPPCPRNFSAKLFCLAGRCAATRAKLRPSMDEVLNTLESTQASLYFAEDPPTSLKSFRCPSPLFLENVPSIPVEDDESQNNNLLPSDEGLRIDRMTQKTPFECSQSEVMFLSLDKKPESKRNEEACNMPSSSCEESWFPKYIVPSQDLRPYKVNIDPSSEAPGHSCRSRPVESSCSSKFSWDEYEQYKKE
Protocol: as §1, §2, §3, §4, §5

T1 sequence (Q06187 whole entry): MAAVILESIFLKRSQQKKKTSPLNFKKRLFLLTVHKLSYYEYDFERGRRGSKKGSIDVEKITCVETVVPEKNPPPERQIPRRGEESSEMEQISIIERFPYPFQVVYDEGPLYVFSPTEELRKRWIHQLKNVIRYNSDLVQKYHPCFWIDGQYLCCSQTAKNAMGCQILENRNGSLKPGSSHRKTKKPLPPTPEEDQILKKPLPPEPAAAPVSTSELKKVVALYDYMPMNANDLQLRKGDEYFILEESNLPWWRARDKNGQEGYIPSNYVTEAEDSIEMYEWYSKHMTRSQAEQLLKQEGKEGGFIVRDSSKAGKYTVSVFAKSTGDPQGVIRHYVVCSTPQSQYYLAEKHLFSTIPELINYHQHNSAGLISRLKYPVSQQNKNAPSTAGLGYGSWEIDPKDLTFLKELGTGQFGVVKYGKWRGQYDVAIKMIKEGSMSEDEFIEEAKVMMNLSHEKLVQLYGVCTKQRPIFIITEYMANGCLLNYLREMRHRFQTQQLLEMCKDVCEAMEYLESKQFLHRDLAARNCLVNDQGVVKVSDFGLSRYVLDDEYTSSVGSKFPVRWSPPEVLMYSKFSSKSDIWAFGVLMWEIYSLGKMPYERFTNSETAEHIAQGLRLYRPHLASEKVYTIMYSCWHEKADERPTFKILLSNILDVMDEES

CNC(=O)c1ccccc1Nc1nc(Nc2ccc(N3CCN(CCOCCOCCOCCOCC(=O)Nc4cccc5c4CN(C4CCC(=O)NC4=O)C5=O)CC3)cc2)ncc1Cl.O=CO (stereo not drawn) [CEREBLON_PROTAC, 14-(4-(4-((5-Chloro-4-((2-(methylcarbamoyl)phenyl)amino)pyrimidin-2-yl)amino)phenyl)piperazin-1-yl)-N-(2-(2,6-dioxopiperidin-3-yl)-1-oxoisoindolin-4-yl)-3,6,9,12-tetraoxatetradecan-1-amide formate]
log2 rel. fc. to vehicle control (BTK; 24 h 0.1 μM, n = 1): −1.65
log2 rel. fc. to vehicle control (BTK; 24 h 0.1 μM, n = 2): −1.67
log2 rel. fc. to vehicle control (BTK; 24 h 1 μM, n = 1): −2.02
log2 rel. fc. to vehicle control (BTK; 24 h 1 μM, n = 2): −1.86
log2 rel. fc. to vehicle control (RPS6KA1; 24 h 0.1 μM, n = 1): −1.65
log2 rel. fc. to vehicle control (RPS6KA1; 24 h 0.1 μM, n = 2): −1.55
log2 rel. fc. to vehicle control (RPS6KA1; 24 h 1 μM, n = 1): −1.86
log2 rel. fc. to vehicle control (RPS6KA1; 24 h 1 μM, n = 2): −1.93
log2 rel. fc. to vehicle control (IRAK3; 24 h 0.1 μM, n = 1): −2.25
log2 rel. fc. to vehicle control (IRAK3; 24 h 0.1 μM, n = 2): −1.82
log2 rel. fc. to vehicle control (IRAK3; 24 h 1 μM, n = 1): −1.65
log2 rel. fc. to vehicle control (IRAK3; 24 h 1 μM, n = 2): −1.86
